The text below walks through data of PMC9841298 (Clinical and Translational Science, 2022).

SMILES strings stand for the structures. Read-outs that look alike come from different tables or passages of the source.

The nature of series [1]: PKPlus two-compartmental PK model fitted to reference product plasma data. More on the design: species or system human.
The conditions of series [2]: ref website drug bank, cited from earlier work.
[3] abbreviates: fasting, two-compartmental model, from reference product 2.0 mg data of ref 13.

As for `O=C(O)C[C@H](O)C[C@H](O)/C=C/c1c(C2CC2)nc2ccccc2c1-c1ccc(F)cc1` [pitavastatin calcium], in series [1] (setting [3]), the “distribution coefficient from the peripheral to central compartment (k21)” value was 0.086 h⁻¹ and the “distribution constant from the central to the peripheral compartment (k12)” value came out at 0.252 h⁻¹. Moreover, in series [1] (human, plasma, oral, 2 mg), the Vd stood at 43.2 L and the clearance is 343 mL/min. In addition, in series [2] (model input), the Log P (commonly a log measure of how a compound divides between an organic and an aqueous phase) is reported as 3.75; the pKa – broadly, the pH at which an ionisable group is half protonated – was 4.86. For the same compound, in series [2] (pH 4.68), the Solubility (usually the dissolved amount per volume that the medium holds) was 65.2 µg/mL. Further, the Solubility in series [2] (water) is 3.94 µg/mL.
